How the values were obtained:
WEE1 = target: T1, WEE1 (Homo sapiens, UniProt P30291+Q96SW2); experiment: Western-blot assay of substrate protein degradation in hPBMCs, WEE1; format: cell-based; details: 24 hours of compound treatment, compounds tested at 50 nM and 500 nM (concentration of the table not stated)
T1 construct: endogenous in cells; host or cells: hPBMCs (Milecell Biotechnologies)

IKZF1 = target: T2, IKZF1 (Homo sapiens, UniProt Q13422+Q96SW2); experiment: Western-blot assay of substrate protein degradation in hPBMCs, IKZF1; format: cell-based; details: 24 hours of compound treatment, compounds tested at 50 nM and 500 nM (concentration of the table not stated)
T2 construct: endogenous in cells; host or cells: hPBMCs (Milecell Biotechnologies)

IKZF2 = target: T3, IKZF2 (Homo sapiens, UniProt Q96SW2+Q9UKS7); experiment: Western-blot assay of substrate protein degradation in hPBMCs, IKZF2; format: cell-based; details: 24 hours of compound treatment, compounds tested at 50 nM and 500 nM (concentration of the table not stated)
T3 construct: endogenous in cells; host or cells: hPBMCs (Milecell Biotechnologies)
T3 sequence (Q9UKS7 whole entry): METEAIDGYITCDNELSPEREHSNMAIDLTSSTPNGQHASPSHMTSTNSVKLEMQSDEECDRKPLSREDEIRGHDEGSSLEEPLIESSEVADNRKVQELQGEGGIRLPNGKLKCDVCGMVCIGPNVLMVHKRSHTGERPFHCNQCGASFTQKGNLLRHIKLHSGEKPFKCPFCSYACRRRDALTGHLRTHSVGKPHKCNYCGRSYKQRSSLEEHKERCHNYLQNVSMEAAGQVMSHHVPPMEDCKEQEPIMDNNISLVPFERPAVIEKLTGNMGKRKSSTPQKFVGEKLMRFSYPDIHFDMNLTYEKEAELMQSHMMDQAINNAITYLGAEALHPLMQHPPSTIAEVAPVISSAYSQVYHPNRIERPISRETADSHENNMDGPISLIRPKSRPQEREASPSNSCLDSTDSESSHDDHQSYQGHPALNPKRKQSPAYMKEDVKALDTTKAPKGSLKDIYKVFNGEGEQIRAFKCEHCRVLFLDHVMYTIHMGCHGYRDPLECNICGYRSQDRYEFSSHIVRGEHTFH
T3 sequence (Q96SW2 whole entry): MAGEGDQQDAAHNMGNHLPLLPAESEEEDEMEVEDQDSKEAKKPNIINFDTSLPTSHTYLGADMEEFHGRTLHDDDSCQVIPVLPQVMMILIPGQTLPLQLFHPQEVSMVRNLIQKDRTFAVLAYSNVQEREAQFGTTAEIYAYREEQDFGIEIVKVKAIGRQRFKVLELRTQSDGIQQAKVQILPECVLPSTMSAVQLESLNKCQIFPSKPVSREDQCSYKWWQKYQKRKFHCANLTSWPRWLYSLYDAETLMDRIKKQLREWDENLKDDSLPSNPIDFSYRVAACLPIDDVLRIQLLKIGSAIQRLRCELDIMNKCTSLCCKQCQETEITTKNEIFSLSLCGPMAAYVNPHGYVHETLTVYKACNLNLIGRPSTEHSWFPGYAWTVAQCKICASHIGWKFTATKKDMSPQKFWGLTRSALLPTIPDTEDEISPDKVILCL
T3 sequence (Q16531 whole entry partner): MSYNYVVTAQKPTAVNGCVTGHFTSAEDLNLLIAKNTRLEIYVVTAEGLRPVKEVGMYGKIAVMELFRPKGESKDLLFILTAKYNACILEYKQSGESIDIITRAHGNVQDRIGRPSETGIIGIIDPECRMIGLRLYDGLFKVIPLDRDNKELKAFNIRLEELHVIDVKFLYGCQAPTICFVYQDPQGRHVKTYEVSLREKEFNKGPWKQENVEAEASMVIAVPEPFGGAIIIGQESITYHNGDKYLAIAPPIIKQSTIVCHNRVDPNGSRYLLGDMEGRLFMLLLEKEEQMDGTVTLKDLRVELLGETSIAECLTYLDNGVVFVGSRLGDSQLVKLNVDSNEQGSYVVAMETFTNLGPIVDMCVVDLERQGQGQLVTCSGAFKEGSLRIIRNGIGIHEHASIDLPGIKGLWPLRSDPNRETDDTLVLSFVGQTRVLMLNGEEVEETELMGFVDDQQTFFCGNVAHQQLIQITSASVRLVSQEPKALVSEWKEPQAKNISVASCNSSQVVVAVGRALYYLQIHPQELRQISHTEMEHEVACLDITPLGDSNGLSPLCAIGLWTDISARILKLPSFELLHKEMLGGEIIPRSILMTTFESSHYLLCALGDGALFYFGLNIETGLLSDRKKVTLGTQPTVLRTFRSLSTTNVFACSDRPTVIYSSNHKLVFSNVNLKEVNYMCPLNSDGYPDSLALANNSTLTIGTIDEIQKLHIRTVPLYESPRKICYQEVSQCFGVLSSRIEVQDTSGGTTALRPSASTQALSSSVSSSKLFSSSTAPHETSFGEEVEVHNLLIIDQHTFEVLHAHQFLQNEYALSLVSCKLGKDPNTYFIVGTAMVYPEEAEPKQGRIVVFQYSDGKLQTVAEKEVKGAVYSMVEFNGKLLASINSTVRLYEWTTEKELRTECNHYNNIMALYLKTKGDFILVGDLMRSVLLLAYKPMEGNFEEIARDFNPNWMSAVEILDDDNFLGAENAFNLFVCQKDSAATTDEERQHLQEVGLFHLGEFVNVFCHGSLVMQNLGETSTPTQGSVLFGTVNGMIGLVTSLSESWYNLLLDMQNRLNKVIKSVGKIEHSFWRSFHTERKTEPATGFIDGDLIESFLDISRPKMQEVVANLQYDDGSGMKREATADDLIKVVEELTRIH

IKZF3 = target: T4, IKZF3 (Homo sapiens, UniProt Q96SW2+Q9UKT9); experiment: Western-blot assay of substrate protein degradation in hPBMCs, IKZF3; format: cell-based; details: 24 hours of compound treatment, compounds tested at 50 nM and 500 nM (concentration of the table not stated)
T4 construct: endogenous in cells; host or cells: hPBMCs (Milecell Biotechnologies)
T4 sequence (Q9UKT9 whole entry): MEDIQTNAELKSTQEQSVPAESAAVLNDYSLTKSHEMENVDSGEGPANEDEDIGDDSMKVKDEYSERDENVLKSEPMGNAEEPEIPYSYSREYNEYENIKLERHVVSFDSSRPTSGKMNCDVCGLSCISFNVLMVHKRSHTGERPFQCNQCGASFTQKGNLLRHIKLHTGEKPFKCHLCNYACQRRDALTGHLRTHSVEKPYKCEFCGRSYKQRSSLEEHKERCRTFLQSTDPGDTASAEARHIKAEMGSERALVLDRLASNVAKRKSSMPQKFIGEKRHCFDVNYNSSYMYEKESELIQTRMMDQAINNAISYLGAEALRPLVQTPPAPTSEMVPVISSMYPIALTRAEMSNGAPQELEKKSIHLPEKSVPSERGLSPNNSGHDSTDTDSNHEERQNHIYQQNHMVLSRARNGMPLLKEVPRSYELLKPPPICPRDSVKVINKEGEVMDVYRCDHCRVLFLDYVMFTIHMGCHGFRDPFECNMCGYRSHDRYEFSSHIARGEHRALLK
T4 sequence (Q96SW2 whole entry): as the sequence (Q96SW2 whole entry) above
T4 sequence (Q16531 whole entry partner): as the sequence (Q16531 whole entry partner) above

CK1α = target: T5, CK1α (Homo sapiens, UniProt P48729+Q96SW2); experiment: Western-blot assay of substrate protein degradation in hPBMCs, CK1α; format: cell-based; details: 24 hours of compound treatment, compounds tested at 50 nM and 500 nM (concentration of the table not stated)
T5 construct: endogenous in cells; host or cells: hPBMCs (Milecell Biotechnologies)
T5 sequence (P48729 whole entry): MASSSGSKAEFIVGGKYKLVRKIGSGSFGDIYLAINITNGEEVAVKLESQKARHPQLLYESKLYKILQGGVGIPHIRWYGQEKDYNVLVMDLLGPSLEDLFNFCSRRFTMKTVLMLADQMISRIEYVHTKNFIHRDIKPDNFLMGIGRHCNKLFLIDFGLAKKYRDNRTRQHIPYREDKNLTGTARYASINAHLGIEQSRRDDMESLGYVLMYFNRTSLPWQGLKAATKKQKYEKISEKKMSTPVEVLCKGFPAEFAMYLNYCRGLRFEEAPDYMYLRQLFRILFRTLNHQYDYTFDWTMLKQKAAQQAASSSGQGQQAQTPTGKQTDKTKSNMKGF
T5 sequence (Q96SW2 whole entry): as the sequence (Q96SW2 whole entry) above
T5 sequence (Q16531 whole entry partner): as the sequence (Q16531 whole entry partner) above

GSPT1 = target: T6, GSPT1 (Homo sapiens, UniProt P15170+Q96SW2); experiment: Western-blot assay of substrate protein degradation in hPBMCs, GSPT1; format: cell-based; details: 24 hours of compound treatment, compounds tested at 50 nM and 500 nM (concentration of the table not stated)
T6 construct: endogenous in cells; host or cells: hPBMCs (Milecell Biotechnologies)
T6 sequence (P15170 whole entry): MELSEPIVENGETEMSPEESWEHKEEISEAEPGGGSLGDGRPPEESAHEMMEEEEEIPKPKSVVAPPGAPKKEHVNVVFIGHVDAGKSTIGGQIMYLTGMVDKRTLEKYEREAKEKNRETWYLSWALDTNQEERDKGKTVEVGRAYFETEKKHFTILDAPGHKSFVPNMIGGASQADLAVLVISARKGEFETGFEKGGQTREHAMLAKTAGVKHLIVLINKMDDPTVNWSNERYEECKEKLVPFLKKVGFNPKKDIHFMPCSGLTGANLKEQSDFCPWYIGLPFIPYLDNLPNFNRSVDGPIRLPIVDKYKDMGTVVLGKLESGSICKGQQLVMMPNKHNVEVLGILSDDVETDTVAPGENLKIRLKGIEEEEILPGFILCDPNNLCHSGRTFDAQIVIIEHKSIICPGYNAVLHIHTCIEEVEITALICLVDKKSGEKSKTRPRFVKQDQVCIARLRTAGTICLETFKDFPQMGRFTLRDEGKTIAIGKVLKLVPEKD
T6 sequence (Q96SW2 whole entry): as the sequence (Q96SW2 whole entry) above
T6 sequence (Q16531 whole entry partner): as the sequence (Q16531 whole entry partner) above

[1] = target: T7, human Cereblon WT GST-tagged protein (Homo sapiens, UniProt Q96SW2); experiment: CRBN-binding affinity by HTRF (CEREBLON BINDING kit); details: HTRF inhibitory activity, CEREBLON BINDING kit; read-out: HTRF IC50
T7 construct: purchased CISBIO 64BDCRBNPEH
T7 sequence (Q96SW2 whole entry): as the sequence (Q96SW2 whole entry) above

T1 sequence (P30291 whole entry): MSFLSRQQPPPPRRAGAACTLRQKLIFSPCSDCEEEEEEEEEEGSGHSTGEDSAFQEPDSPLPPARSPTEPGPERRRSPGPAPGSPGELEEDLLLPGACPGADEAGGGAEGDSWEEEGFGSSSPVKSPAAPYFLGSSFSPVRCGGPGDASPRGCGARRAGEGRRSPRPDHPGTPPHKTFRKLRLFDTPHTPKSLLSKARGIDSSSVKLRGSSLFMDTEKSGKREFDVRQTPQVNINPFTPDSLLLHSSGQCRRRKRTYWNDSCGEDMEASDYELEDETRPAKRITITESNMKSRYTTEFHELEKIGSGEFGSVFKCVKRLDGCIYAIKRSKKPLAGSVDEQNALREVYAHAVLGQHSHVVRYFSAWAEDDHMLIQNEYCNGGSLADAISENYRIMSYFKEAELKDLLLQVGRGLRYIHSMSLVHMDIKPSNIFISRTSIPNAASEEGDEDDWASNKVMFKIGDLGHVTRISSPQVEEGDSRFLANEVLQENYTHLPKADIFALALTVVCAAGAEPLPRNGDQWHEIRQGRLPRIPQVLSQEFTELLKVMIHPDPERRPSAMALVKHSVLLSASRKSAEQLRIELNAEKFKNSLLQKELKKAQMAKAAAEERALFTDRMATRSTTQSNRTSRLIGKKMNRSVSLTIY
T1 sequence (Q96SW2 whole entry): as the sequence (Q96SW2 whole entry) above
T1 sequence (Q16531 whole entry partner): as the sequence (Q16531 whole entry partner) above

SMILES	IC50 [1] [nM]	Weel substrate protein remaining % (WEE1)	IKZF 1 substrate protein remaining % (IKZF1)	IKZF2 substrate protein remaining % (IKZF2)	IKZF3 substrate protein remaining % (IKZF3)	CK1a substrate protein remaining % (CK1α)	GSPT1 substrate protein remaining % (GSPT1)
Cc1nc(C2CCN(Cc3ccc4c(c3)CN(C3CCC(=O)NC3=O)C4=O)CC2)c2c(-c3ccccc3)csc2n1 (centres unmarked) [GT-05158, 3-(5-((4-(2-methyl-5-phenylthieno[2,3-d]pyrimidin-4-yl)piperidin-1-yl)methyl)-1-oxoisoindolin-2-yl)piperidine-2,6-dione]	< 500	B (80%< substrate protein remaining %≤ 100%)	B (80%< substrate protein remaining %≤ 100%)	A (0% ≤ substrate protein remaining % ≤ 80%)	A (0% ≤ substrate protein remaining % ≤ 80%)	B (80%< substrate protein remaining %≤ 100%)	A (0% ≤ substrate protein remaining % ≤ 80%)
O=C1CCC(N2Cc3cc(CN4CCC(c5ncnc6sc(-c7ccccc7)cc56)CC4)ccc3C2=O)C(=O)N1 (centres unmarked) [GT-05159, 3-(1-oxo-5-((4-(6-phenylthieno[2,3-d]pyrimidin-4-yl)piperidin-1-yl)methyl)isoindolin-2-yl)piperidine-2,6-dione]	< 500	B (80%< substrate protein remaining %≤ 100%)	A (0% ≤ substrate protein remaining % ≤ 80%)	A (0% ≤ substrate protein remaining % ≤ 80%)	A (0% ≤ substrate protein remaining % ≤ 80%)	B (80%< substrate protein remaining %≤ 100%)	A (0% ≤ substrate protein remaining % ≤ 80%)
O=C1CCC(N2Cc3cc(CN4CCN(c5ncnc6sc7c(c56)CCCC7)CC4)ccc3C2=O)C(=O)N1 (centres unmarked) [GT-05209, 3-(1-oxo-5-((4-(5,6,7,8-tetrahydrobenzo[4,5]thieno[2,3-d]pyrimidin-4-yl)piperazin-1-yl)methyl)isoindolin-2-yl)piperidine-2,6-dione]	< 500	A (0% ≤ substrate protein remaining % ≤ 80%)	A (0% ≤ substrate protein remaining % ≤ 80%)	A (0% ≤ substrate protein remaining % ≤ 80%)	A (0% ≤ substrate protein remaining % ≤ 80%)	B (80%< substrate protein remaining %≤ 100%)	B (80%< substrate protein remaining %≤ 100%)

Now from value to molecule, other results behind:

IC50 [1] [nM]	SMILES	Weel substrate protein remaining % (WEE1)	IKZF 1 substrate protein remaining % (IKZF1)	IKZF2 substrate protein remaining % (IKZF2)	IKZF3 substrate protein remaining % (IKZF3)	CK1a substrate protein remaining % (CK1α)	GSPT1 substrate protein remaining % (GSPT1)
< 500	Cc1nc(C2=CCN(Cc3ccc4c(c3)CN(C3CCC(=O)NC3=O)C4=O)CC2)c2c(-c3ccccc3)csc2n1 (centres unmarked) [GT-05102, 3-(5-((4-(2-methyl-5-phenylthieno[2,3-d]pyrimidin-4-yl)-3,6-dihydropyridin-1(2H)-yl)methyl)-1-oxoisoindolin-2-yl)piperidine-2,6-dione]	A (0% ≤ substrate protein remaining % ≤ 80%)	A (0% ≤ substrate protein remaining % ≤ 80%)	A (0% ≤ substrate protein remaining % ≤ 80%)	B (80%< substrate protein remaining %≤ 100%)	B (80%< substrate protein remaining %≤ 100%)	A (0% ≤ substrate protein remaining % ≤ 80%)
< 500	Cc1nc(N2CCN(Cc3ccc4c(c3)CN(C3CCC(=O)NC3=O)C4=O)CC2)c2c3c(sc2n1)CCC3 (centres unmarked) [GT-05157, 3-(5-((4-(2-methyl-6,7-dihydro-5H-cyclopenta[4,5]thieno[2,3-d]pyrimidin-4-yl)piperazin-1-yl)methyl)-1-oxoisoindolin-2-yl)piperidine-2,6-dione]	B (80%< substrate protein remaining %≤ 100%)	A (0% ≤ substrate protein remaining % ≤ 80%)	A (0% ≤ substrate protein remaining % ≤ 80%)	A (0% ≤ substrate protein remaining % ≤ 80%)	A (0% ≤ substrate protein remaining % ≤ 80%)	A (0% ≤ substrate protein remaining % ≤ 80%)
